Experimental data: patent publication US9757473B2, “Cell-penetrating peptide and conjugate comprising same” (GEMVAX & KAEL CO., LTD., priority 2013, dated 2017)
Residues, ends and D or L forms follow the SMILES beside them. No end group written: not given here.

What was measured:
Type in all cases: cell-based
[1] = test system: head and neck cancer cells; experiment: Dose-dependent cell apoptosis by MTT assay, cancer cell lines (Example 5); details: MTT at 72 hours
Method: (§1) The cell line was made by the cells and the cell cultivation method described in example 2 as same.
(§2) After culturing the cancer cells and normal cells at 96 well-plate in 30-40% level 24-hours in advance by pre-seeding, treating with each reagent, and pre-evaluating killing ability by analyzing cell shape through microscope at 24 hours/48 hours/72 hours after, the quantitative analysis was done by MTT (3-(4,5-dimethylthiazol-2-yl)-2,5-diphenyltetrazolium bromide, a yellow tetrazole) assay which measures OD (optical density) values at 72 hours after.

[2] = test system: normal cell DPSC (Dental Pulp Stem Cell); experiment: Dose-dependent cell apoptosis by MTT assay, normal cells (Example 5)
Method: as §1, §2

[3] = test system: HN5 and OSC19 head and neck cancer cells; experiment: Intracellular trafficking (cell penetrability) by flow cytometry (FACS); details: 10 uM, 2.5 hours
Method: (§3) In order to analysis of intracellular trafficking, Korean head and neck cancer cells (SNU-1041, SNU-1076), head and neck cancer cells founded by MD Anderson cancer center (OSC19, HN5), and normal cells DPSC (Dental Pulp Stem Cell) were used. The cell lines was maintained in good condition by seeding each cells to 100 cm2-culture dishes with RPMI-1640 or DMEM culture-media, 10% FBS and antibiotic-antimycotic antibiotics and culturing in incubator (37° C., 5% CO2). The condition of cells was maintained in good condition by checking the speed and conditions of cells and sub-culturing cells per 2-5 days.

[4] = test system: head and neck cancer cells; experiment: as above; details: 10 uM, 2.5 hours
Method: as §3

[5] = test system: SNU-1041 and SNU-1076 head and neck cancer cells; experiment: as above; details: SNU-1041 and SNU-1076 cells, 10 uM, 2.5 hours, FIG. 2
Method: In order to analysis of intracellular trafficking, Korean head and neck cancer cells (SNU-1041, SNU-1076), head and neck cancer cells founded by MD Anderson cancer center (OSC19, HN5), and normal cells DPSC (Dental Pulp Stem Cell) were used.
The cell lines was maintained in good condition by seeding each cells to 100 cm2-culture dishes with RPMI-1640 or DMEM culture-media, 10% FBS and antibiotic-antimycotic antibiotics and culturing in incubator (37° C., 5% CO2). The condition of cells was maintained in good condition by checking the speed and conditions of cells and sub-culturing cells per 2-5 days.
After culturing the cells with prepared cancer cells in 6 well-plate at 60-70% level 24-hours in advance, treating FITC (10 uM), pep1-FITC (10 uM), FITC-TAT (10 uM) separately, eliminating the culture media 2.5 hours later, washing with saline, and separating cells by treating Trypsin-EDTA enzyme to prepare each tube of 10^6 cells/ml, the cells was analyzed by FACS.

## Cc1ccc(S(=O)(=O)OCC(=O)Nc2ccc(C(=O)O)c(O)c2)cc1 [NSC 74859]
[1]; FIG. 4, FIG. 5
  concentration from which killing / apoptosis of cancer cells started: 50 µM
  concentration killing almost the whole cancer cells: 200 µM
[2]; MTT at 72 hours, FIG. 4
  concentration at which cell apoptosis of normal cells was shown: 200 µM
  concentration till which normal cells were not killed: 100 µM

## CSCC[C@H](NC(=O)[C@H](CC(N)=O)NC(=O)[C@H](CCCNC(=N)N)NC(=O)CNC(=O)[C@H](C)NC(=O)[C@H](CCCCN)NC(=O)[C@H](Cc1ccccc1)NC(=O)CNC(=O)[C@H](CCCNC(=N)N)NC(=O)[C@H](CC(N)=O)NC(=O)c1ccc(NC(=O)COS(=O)(=O)c2ccc(C)cc2)cc1O)C(=O)N[C@@H](CCCNC(=N)N)C(=O)N[C@@H](CCCNC(=N)N)C(=O)N[C@@H](CCCCN)C(=O)N[C@@H](CC(C)C)C(=O)N[C@@H](Cc1ccccc1)C(=O)NCC(=O)N[C@H](C(=O)N[C@@H](CC(C)C)C(=O)N[C@@H](CCCNC(=N)N)C(=O)N[C@@H](CC(C)C)C(=O)O)C(C)C [pep98-NSC 74859] (HELM PEPTIDE1{[Cc1ccc(S(=O)(=O)OCC(=O)[*:2])cc1].[O=C(c1ccc(N[*:1])cc1O)[*:2]].N.R.G.F.K.A.G.R.N.M.R.R.K.L.F.G.V.L.R.L}$$$$V2.0)
[2]; at the concentration that killed almost the whole cancer cells, FIG. 5
  killing of normal cells (in words): did not kill normal cell DPSC

## NRGFKAGRNMRRKLFGVLRL [pep98]
[1]; treated alone, FIG. 3
  proliferation of cancer cells (cytotoxicity): not significantly decreased

## pep1-FITC (EARPALLTSRLRFIPK; also: FITC label, site not given here; UniProt O14746 611-626, looked up, fragment)
[3]
  cell penetrability (in words): lower cell penetrability
[4]
  cell penetrability compared with FITC only: improved cell penetrability than the FITC only

## pep 1: pep 1 (consists of 16 amino acids) derived from telomerase, used for comparison (EARPALLTSRLRFIPK; UniProt O14746 611-626, looked up, fragment)
[5]
  cell penetrability (in words): high cell penetrability
